# Measurements as given in patent publication US10596169B2, “Cancer treatment with combination of plinabulin and taxane” (BeyondSpring Inc., priority 2013, dated 2020).
# Marks after values point to notes of the source that are not given here.
# Tests used:
# [1] = test system: MV522 human non-small cell lung tumor xenograph model; assay: Example 1: MV522 xenograft, NPI-2358 single agent and with docetaxel (TGI/TGD); assay type: in vivo, athymic nu/nu mice; settings: for MDS day ± SD: endpoint 1.5 cm^3
# Procedure: In vivo evaluation of plinabulin (NPI-2358) as a single agent and in combination with docetaxel in the MV522 human non-small cell lung tumor xenograph model in athymic nu/nu mice
# The objective of the example was to determine potential additive or synergistic effects of plinabulin in combination with docetaxel in the MV522 model by exploring the scheduling of the drug combination explored by administering one of the agents 2 hours after the first drug was given. Significant endpoints for this experiment included mean tumor growth inhibition (TGI) or regression, tumor growth delay (TGD) in large tumor, weight loss, and mortality.
# Female nude mice (Hsd: Athymic Nude-Foxn1^nu) between 5 and 6 weeks of age weighing approximately 20 grams were obtained from Harlan, Inc. (Madison, Wis.). MV522 is a conventional human NSC metastatic lung tumor cell line (U.S. Pat. No. 7,700,615 or 7,629,380). Animals were injected subcutaneously (SC) with approximately 1×10^7 MV522 cells harvested from tissue culture. When tumors grew to approximately 105 cubic millimeters (mm^3) in size (3 days following implantation), animals were pair-matched by tumor size into treatment and control groups; each treatment group contained eight mice. Animals were ear-tagged and followed individually throughout the experiment.
# Initial doses were administered on Day 1 following pair-matching. The experiment was carried out as a tumor growth inhibition (TGI) and tumor growth delay (TGD) study. Group 1 endpoint was when tumor volume reached 1.2 cm^3 (TGI) and the treated groups endpoint was when each individual animal's tumor volume reached 1.5 cm^3 (TGD). […] To serve as negative controls, NPI-2358 vehicle and docetaxel vehicle were injected IP on a 2×WKLY×3 schedule and IV on a Q2D×3 schedule, respectively. Docetaxel was administered by intravenous (IV) injection via tail vein at 15 mg/kg once every other day for three treatments (Q2D×3) or at 25 mg/kg on a Q7D×3 schedule (every 7 day for three treatment). Docetaxel and docetaxel vehicle were administered two hours prior to NPI-2358 vehicle and NPI-2358, respectively, in Groups 7-9 and 12-14. For Groups 10, 11, 15, and 16, NPI-2358 was given two hours prior to docetaxel.
# Mice were weighed and caliper tumor measurements taken. Tumor growth inhibition (TGI) values were calculated for each group containing treated animals using the formula below: […]
# Animals experiencing complete tumor responses or animals experiencing technical or drug-related deaths were censored from final TGI calculations; however animals experiencing partial tumor responses were included in the final TGI calculations. […] TGI values for each treatment group are reported at study completion; these calculations are based on the final study day.
# This arm of the study was ended on Day 74 at the sponsor's request. […] Upon TGD study completion, a Median Day of Sacrifice (MDS) was calculated for the control (C) and each treatment (T) group and used to determine tumor growth delay (T-C) using the following equations: MDS=Median [ΣIDS] T−C=MDSTreated−MDSControl
# Where IDS (Individual Day of Sacrifice) is the day when each animal reached its tumor volume endpoint (1.5 cm^3); only animals reaching this endpoint were included in TGD calculations. Gross or net log10 cell kill for each treatment group was determined using the following equations: […]
# NSCLC = settings: wide type NSCLC patients (stage IIIb/IV, second line), docetaxel 75 mg/m^2; cited from earlier work
# [2] = G7: docetaxel 15 mg/kg IV Q2Dx3 + NPI-2358 vehicle
# [3] = G12: docetaxel 25 mg/kg IV Q7Dx3 + NPI-2358 vehicle
compound,measurement,setting,value
"CC(=O)O[C@@]12CO[C@@H]1C[C@H](O)[C@@]1(C)C(=O)[C@H](O)C3=C(C)[C@@H](OC(=O)[C@H](O)[C@@H](NC(=O)OC(C)(C)C)c4ccccc4)C[C@@](O)([C@@H](OC(=O)c4ccccc4)[C@H]21)C3(C)C [Docetaxel, docetaxel]",#CR (Day 25),[1]; [2],0/0
same,#CR (TGD study),[1]; [2],0/0
same,#LTS (long-term survivors),[1]; [2],0
same,#PR (Day 25),[1]; [2],0/0
same,#PR (TGD study),[1]; [2],0/0
same,% TGI,[1]; [2],88%
same,Final tumor volume (Day 25) mean ± SEM,[1]; [2],259 ± 45 mm^3
same,Log10 cell kill,[1]; [2],0.4
same,T-C (tumor growth delay),[1]; [2],16
same,MDS day ± SD,[1]; [2],45 ± 9 days
same,#CR (Day 25),[1]; [3],0
same,#CR (TGD study),[1]; [3],0/0
same,#LTS (long-term survivors),[1]; [3],2
same,#PR (Day 25),[1]; [3],8
same,#PR (TGD study),[1]; [3],0/0
same,% TR (Day 25),[1]; [3],58%
same,Activity rating,[1]; [3],+ (1.0-1.9)
same,Final tumor volume (Day 25) mean ± SEM,[1]; [3],43 ± 4 mm^3
same,Log10 cell kill,[1]; [3],1.0
same,T-C (tumor growth delay),[1]; [3],39
same,MDS day ± SD,[1]; [3],68 ± 6 days
same,% TGI,"[1]; G12: docetaxel 25 mg/kg IV Q7Dx3 + NPI-2358 vehicle, value includes tumors with PR",107^† %
same,Tumor volume / tumor burden compared to vehicle control,"[1]; single agent, Example 1",strong decrease in tumor burden
same,OS,NSCLC,8.2 months
